Results reported in ChEMBL document CHEMBL4371009, “Polypharmacology by Design: A Medicinal Chemist's Perspective on Multitargeting Compounds” (J Med Chem, 2019).

Tests used:
D(4) dopamine receptor = target: T1, D(4) dopamine receptor (Homo sapiens, UniProt P21917); assay: Displacement of [3H]-N-methylspiperone from dopamine D4 receptor (unknown origin) expressed in HEK293 cell membranes
T1 sequence (P21917 whole entry): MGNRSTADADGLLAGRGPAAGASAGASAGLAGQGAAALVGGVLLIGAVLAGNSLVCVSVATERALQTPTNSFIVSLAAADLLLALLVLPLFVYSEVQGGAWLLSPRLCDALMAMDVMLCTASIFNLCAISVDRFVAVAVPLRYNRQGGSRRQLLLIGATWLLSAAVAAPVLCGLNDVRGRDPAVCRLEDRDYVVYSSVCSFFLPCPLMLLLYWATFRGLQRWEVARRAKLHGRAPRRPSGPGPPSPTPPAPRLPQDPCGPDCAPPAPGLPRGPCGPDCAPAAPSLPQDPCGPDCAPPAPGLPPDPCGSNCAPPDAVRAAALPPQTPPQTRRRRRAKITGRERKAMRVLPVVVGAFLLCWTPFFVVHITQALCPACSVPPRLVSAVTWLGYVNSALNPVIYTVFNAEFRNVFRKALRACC

[1] = target: T2, 5-hydroxytryptamine receptor 1A (Homo sapiens, UniProt P08908); assay: Displacement of [3H]-Way100635 from 5HT1A (unknown origin) expressed in CHO cell membranes
T2 sequence (P08908 whole entry): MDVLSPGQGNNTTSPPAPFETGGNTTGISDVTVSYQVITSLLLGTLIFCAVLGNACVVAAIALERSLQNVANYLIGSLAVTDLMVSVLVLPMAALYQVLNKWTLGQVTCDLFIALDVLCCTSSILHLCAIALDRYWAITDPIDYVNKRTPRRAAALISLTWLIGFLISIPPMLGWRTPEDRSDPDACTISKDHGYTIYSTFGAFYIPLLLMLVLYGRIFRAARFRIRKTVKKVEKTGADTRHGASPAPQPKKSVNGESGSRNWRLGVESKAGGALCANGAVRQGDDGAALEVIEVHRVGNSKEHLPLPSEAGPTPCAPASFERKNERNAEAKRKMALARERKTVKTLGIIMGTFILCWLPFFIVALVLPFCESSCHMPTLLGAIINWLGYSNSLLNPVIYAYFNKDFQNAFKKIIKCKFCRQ

D(3) dopamine receptor = D(3) dopamine receptor (Homo sapiens, UniProt P35462); assay: Displacement of [3H]-N-methylspiperone from dopamine D3 receptor (unknown origin) expressed in HEK293 cell membranes
Sequence of D(3) dopamine receptor (P35462 whole entry): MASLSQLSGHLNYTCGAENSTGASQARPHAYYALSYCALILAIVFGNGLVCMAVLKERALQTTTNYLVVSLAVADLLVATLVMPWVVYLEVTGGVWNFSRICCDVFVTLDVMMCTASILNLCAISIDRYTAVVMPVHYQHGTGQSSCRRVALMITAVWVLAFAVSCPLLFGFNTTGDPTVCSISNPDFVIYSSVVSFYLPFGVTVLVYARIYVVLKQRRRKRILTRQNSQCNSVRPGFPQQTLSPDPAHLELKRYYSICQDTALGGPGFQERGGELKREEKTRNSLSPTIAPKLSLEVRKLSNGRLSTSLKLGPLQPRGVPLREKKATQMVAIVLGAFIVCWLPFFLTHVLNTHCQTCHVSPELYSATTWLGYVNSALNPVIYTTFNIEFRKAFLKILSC

Ki (D(4) dopamine receptor): 6.5 nM | Ki [1]: 1.2 nM | Ki (D(3) dopamine receptor): 3 nM
SMILES: COc1cc2c(cc1OC)C(=O)N(CCCCN1CCN(c3ccccn3)CC1)CCC2
